≈ marks a conversion by molar mass, not a printed value. Read-outs that look alike come from different tables or passages of the source.
Key:
[1] = tested on: strain 4S (frameshift mutation); conditions: Bromocresol Red colour change
[2] = tested on: strain 6S (frameshift mutation); test: Long-term mutation test (selection phase 16 hours), luminometric β-galactosidase reporter; conditions: selection 16 hours
[3] = antibiotic activity; Olivia et al. 1992; cited from earlier work
[4] = tested on: strain 4S (frameshift mutation); test: Long-term mutation test (selection phase 16 hours), luminometric β-galactosidase reporter; conditions: selection 16 hours

**Q.** With `COc1ccc2nc3cc(Cl)ccc3c(NCCCNCCCl)c2c1.Cl.Cl` [ICR-191, 2-Methoxy-6-chloro-9-(3-(2-chloro-ethyl)aminopropylamino)acridine, dihydrochloride] as the molecule, how does the “% of positive wells” value ([1]; 0.03 μg/ml) read?
**A.** 0%

**Q.** What about the “Mutation induction (factor)” value ([1]; 0.03 μg/ml) of the same molecule?
**A.** 0 factor

**Q.** What about the “% of positive wells” value ([1]; 0.06 μg/ml) of the same molecule?
**A.** 6.3%

**Q.** And the “Mutation induction (factor)” value ([1]; 0.06 μg/ml)?
**A.** 2 factor

**Q.** What about the “% of positive wells” value ([1]; 0.12 μg/ml) of the same molecule?
**A.** 12.5%

**Q.** And the “Mutation induction (factor)” value ([1]; 0.12 μg/ml)?
**A.** 4 factor

**Q.** And the “% of positive wells” value ([1]; 0.25 μg/ml)?
**A.** 25%

**Q.** What about the “Mutation induction (factor)” value ([1]; 0.25 μg/ml) of the same molecule?
**A.** 8.1 factor

**Q.** What about the “% of positive wells” value ([1]; 0.5 μg/ml) of the same molecule?
**A.** 37.5%

**Q.** And the “Mutation induction (factor)” value ([1]; 0.5 μg/ml)?
**A.** 12.1 factor

**Q.** And the “% of positive wells” value ([1]; 1 μg/ml)?
**A.** 75%

**Q.** And the “Mutation induction (factor)” value ([1]; 1 μg/ml)?
**A.** 24.2 factor

**Q.** What about the “Mutation induction (factor)” value ([2]; 0.016 μg/ml) of the same molecule?
**A.** 28 factor

**Q.** And the “Relative luminescence units (rlu)” value ([2]; 0.016 μg/ml)?
**A.** 151340 rlu

**Q.** And the “Mutation induction (factor)” value ([2]; 0.031 μg/ml)?
**A.** 57 factor

**Q.** And the “Relative luminescence units (rlu)” value ([2]; 0.031 μg/ml)?
**A.** 307828 rlu

**Q.** And the “Mutation induction (factor)” value ([2]; 0.0625 μg/ml)?
**A.** 86 factor

**Q.** What about the “Relative luminescence units (rlu)” value ([2]; 0.0625 μg/ml) of the same molecule?
**A.** 466003 rlu

**Q.** And the “Mutation induction (factor)” value ([2]; 0.125 μg/ml)?
**A.** 127 factor

**Q.** What about the “Relative luminescence units (rlu)” value ([2]; 0.125 μg/ml) of the same molecule?
**A.** 685471 rlu

**Q.** What about the “Mutation induction (factor)” value ([2]; 0.25 μg/ml) of the same molecule?
**A.** 162 factor

**Q.** What about the “Relative luminescence units (rlu)” value ([2]; 0.25 μg/ml) of the same molecule?
**A.** 880208 rlu

**Q.** What about the “Mutation induction (factor)” value ([2]; 0.5 μg/ml) of the same molecule?
**A.** 235 factor

**Q.** What about the “Relative luminescence units (rlu)” value ([2]; 0.5 μg/ml) of the same molecule?
**A.** 1274327 rlu

**Q.** And the “Mutation induction (factor)” value ([2]; 1 μg/ml)?
**A.** 264 factor

**Q.** What about the “Relative luminescence units (rlu)” value ([2]; 1 μg/ml) of the same molecule?
**A.** 1432620 rlu

**Q.** For `CN(C)[C@@H]1C(=O)C(C(N)=O)=C(O)[C@@]2(O)C(=O)C3=C(O)c4c(O)cccc4[C@@](C)(O)[C@H]3C[C@@H]12` [tetracyclin], which “MIC (minimum inhibition concentration) value” [3] is on record?
**A.** 0.5 µg/mL (≈ 1.13 µM)

**Q.** Which results are given for Nitrofluorene?
**A.** Mutation induction (factor) ([4]; 0.031 μg/ml): 39 factor; Relative luminescence units (rlu) ([4]; 0.031 μg/ml): 210703 rlu; Mutation induction (factor) ([4]; 0.0625 μg/ml): 90 factor; Relative luminescence units (rlu) ([4]; 0.0625 μg/ml): 480532 rlu; Mutation induction (factor) ([4]; 0.125 μg/ml): 169 factor; Relative luminescence units (rlu) ([4]; 0.125 μg/ml): 900022 rlu; Mutation induction (factor) ([4]; 0.25 μg/ml): 321 factor; Relative luminescence units (rlu) ([4]; 0.25 μg/ml): 1713083 rlu; Mutation induction (factor) ([4]; 0.5 μg/ml): 682 factor; Relative luminescence units (rlu) ([4]; 0.5 μg/ml): 3643737 rlu; Mutation induction (factor) ([4]; 1 μg/ml): 630 factor; Relative luminescence units (rlu) ([4]; 1 μg/ml): 3360982 rlu

**Q.** For Nitropyrene, which “Mutation induction (factor)” value ([4]; 0.031 μg/ml) is on record?
**A.** 0.8 factor

**Q.** And the “Relative luminescence units (rlu)” value ([4]; 0.031 μg/ml)?
**A.** 4125 rlu

**Q.** What about the “Mutation induction (factor)” value ([4]; 0.0625 μg/ml) of the same molecule?
**A.** 19.8 factor

**Q.** What about the “Relative luminescence units (rlu)” value ([4]; 0.0625 μg/ml) of the same molecule?
**A.** 105949 rlu

**Q.** What about the “Mutation induction (factor)” value ([4]; 0.125 μg/ml) of the same molecule?
**A.** 41 factor

**Q.** And the “Relative luminescence units (rlu)” value ([4]; 0.125 μg/ml)?
**A.** 219636 rlu

**Q.** What about the “Mutation induction (factor)” value ([4]; 0.25 μg/ml) of the same molecule?
**A.** 65 factor

**Q.** What about the “Relative luminescence units (rlu)” value ([4]; 0.25 μg/ml) of the same molecule?
**A.** 348410 rlu

**Q.** And the “Mutation induction (factor)” value ([4]; 0.5 μg/ml)?
**A.** 177 factor

**Q.** What about the “Relative luminescence units (rlu)” value ([4]; 0.5 μg/ml) of the same molecule?
**A.** 950853 rlu

**Q.** And the “Mutation induction (factor)” value ([4]; 1 μg/ml)?
**A.** 103 factor

**Q.** What about the “Relative luminescence units (rlu)” value ([4]; 1 μg/ml) of the same molecule?
**A.** 552390 rlu
